We go through 31 compounds from patent US12312347B2, “Azaindole derivative and use thereof as FGFR and C-Met inhibitor” (Wuxi Life Fountain Biotech Co., Ltd, priority 2018, dated 2025).

Counter-ions that a name gives are not always drawn.

Common to all, as to format: biochemical
The target in one assay is T1, human FGFR1 (Homo sapiens, UniProt P11362).
T1 construct: purchased Invitrogen PV3146
Nature of the assay: 33P isotope-labeled kinase activity test, FGFR1. To be noted: ATP 5 μM. The method, then:
(§1) The inhibitory activities of the tested compounds on human FGFR1, FGFR4, and c-Met were evaluated by the IC50 values measured using ^33P isotope-labeled kinase activity test (Reaction Biology Corp).
(§2) Buffer condition: 20 mM Hepes (pH 7.5), 10 mM MgCl2, 1 mM EGTA, 0.02% Brij35, 0.02 mg/mL BSA, 0.1 mM Na3VO4, 2 mM DTT, 1% DMSO.
Test procedure: The test compounds were dissolved in DMSO at room temperature and formulated to be 10 mM solutions for later use. The substrates were dissolved in freshly prepared buffer, and kinases to be tested were added and mixed well. The test compounds dissolved in DMSO were added to the above mixed reaction solutions by acoustic technique (Echo 550). […] After incubation for 15 min, ^33P-ATP (activity 0.01 μCi/μL, corresponding concentrations are listed in Table 1) was added to start the reaction. Supplier item number, batch number, as well as the concentration information in the reaction solution of FGFR1, FGFR4, c-Met and substrates thereof are listed in Table 1. […] The kinase activity data are expressed by comparison between the kinase activity in the test compound group and the kinase activity in the blank group (containing DMSO only). IC50 values were obtained by curve fitting with Prism4 software (GraphPad).

For a further assay, the target named is T2, human FGFR4 (Homo sapiens, UniProt P22455).
T2 construct: purchased Invitrogen P3054
Nature of the assay: 33P isotope-labeled kinase activity test, FGFR4. To be noted: ATP 100 μM. The method, then: as §1, §2
(§3) Test procedure: The test compounds were dissolved in DMSO at room temperature and formulated to be 10 mM solutions for later use. The substrates were dissolved in freshly prepared buffer, and kinases to be tested were added and mixed well. The test compounds dissolved in DMSO were added to the above mixed reaction solutions by acoustic technique (Echo 550). The concentration of the compound in reaction solution was 1 μM, […], 3.91 nM, 0.977 nM, 0.244 nM, 0.061 nM, 0.0153 nM, 0.00381 nM or 10 μM, 2.50 μM, 0.62 μM, 0.156 μM, 39.1 nM, 9.8 nM, 2.4 nM, 0.61 nM, 0.15 nM, 0.038 nM. After incubation for 15 min, ^33P-ATP (activity 0.01 μCi/μL, corresponding concentrations are listed in Table 1) was added to start the reaction. Supplier item number, batch number, as well as the concentration information in the reaction solution of FGFR1, FGFR4, c-Met and substrates thereof are listed in Table 1. […] The kinase activity data are expressed by comparison between the kinase activity in the test compound group and the kinase activity in the blank group (containing DMSO only). IC50 values were obtained by curve fitting with Prism4 software (GraphPad).

The target in another assay is T3, human c-Met (Homo sapiens, UniProt P08581).
T3 construct: purchased Invitrogen PV3143
Nature of the assay: 33P isotope-labeled kinase activity test, c-Met. To be noted: ATP 10 μM. The method, then: as §1, §2, §3

T3 sequence (P08581 25-1390): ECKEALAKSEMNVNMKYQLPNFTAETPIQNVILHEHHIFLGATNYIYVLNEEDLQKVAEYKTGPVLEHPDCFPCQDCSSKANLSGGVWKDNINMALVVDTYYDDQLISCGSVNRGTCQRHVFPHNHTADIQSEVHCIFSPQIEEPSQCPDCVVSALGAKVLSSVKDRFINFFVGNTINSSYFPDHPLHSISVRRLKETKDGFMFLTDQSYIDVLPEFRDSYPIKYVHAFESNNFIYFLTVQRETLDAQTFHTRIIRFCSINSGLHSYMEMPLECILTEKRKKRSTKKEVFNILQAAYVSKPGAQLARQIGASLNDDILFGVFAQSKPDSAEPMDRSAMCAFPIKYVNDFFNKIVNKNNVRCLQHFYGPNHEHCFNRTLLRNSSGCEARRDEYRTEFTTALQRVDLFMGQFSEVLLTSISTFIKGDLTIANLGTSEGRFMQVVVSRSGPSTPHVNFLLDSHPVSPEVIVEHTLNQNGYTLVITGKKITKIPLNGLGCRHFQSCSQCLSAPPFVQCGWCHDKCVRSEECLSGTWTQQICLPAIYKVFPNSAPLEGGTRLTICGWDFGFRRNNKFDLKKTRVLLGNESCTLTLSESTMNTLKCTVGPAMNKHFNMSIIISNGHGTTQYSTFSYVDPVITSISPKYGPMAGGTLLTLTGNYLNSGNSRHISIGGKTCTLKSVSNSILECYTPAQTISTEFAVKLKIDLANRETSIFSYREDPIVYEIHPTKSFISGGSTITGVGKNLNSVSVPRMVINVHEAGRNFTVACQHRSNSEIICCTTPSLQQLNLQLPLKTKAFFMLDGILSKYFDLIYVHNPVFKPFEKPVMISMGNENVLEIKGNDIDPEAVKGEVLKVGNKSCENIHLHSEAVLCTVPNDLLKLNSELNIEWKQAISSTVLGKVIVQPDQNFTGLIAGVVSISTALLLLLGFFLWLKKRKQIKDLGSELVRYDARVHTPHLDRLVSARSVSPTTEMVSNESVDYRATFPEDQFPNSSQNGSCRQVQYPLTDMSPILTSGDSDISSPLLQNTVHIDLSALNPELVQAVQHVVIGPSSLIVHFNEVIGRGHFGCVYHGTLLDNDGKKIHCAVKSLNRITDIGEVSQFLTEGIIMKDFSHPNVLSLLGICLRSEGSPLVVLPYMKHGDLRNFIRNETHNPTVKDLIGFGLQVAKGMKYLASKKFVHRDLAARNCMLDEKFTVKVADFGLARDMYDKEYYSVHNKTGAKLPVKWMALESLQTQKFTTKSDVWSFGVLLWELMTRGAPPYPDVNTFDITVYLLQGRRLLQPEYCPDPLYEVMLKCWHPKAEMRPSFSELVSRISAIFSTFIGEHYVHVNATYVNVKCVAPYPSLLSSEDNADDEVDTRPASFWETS
T2 sequence (P22455 22-802): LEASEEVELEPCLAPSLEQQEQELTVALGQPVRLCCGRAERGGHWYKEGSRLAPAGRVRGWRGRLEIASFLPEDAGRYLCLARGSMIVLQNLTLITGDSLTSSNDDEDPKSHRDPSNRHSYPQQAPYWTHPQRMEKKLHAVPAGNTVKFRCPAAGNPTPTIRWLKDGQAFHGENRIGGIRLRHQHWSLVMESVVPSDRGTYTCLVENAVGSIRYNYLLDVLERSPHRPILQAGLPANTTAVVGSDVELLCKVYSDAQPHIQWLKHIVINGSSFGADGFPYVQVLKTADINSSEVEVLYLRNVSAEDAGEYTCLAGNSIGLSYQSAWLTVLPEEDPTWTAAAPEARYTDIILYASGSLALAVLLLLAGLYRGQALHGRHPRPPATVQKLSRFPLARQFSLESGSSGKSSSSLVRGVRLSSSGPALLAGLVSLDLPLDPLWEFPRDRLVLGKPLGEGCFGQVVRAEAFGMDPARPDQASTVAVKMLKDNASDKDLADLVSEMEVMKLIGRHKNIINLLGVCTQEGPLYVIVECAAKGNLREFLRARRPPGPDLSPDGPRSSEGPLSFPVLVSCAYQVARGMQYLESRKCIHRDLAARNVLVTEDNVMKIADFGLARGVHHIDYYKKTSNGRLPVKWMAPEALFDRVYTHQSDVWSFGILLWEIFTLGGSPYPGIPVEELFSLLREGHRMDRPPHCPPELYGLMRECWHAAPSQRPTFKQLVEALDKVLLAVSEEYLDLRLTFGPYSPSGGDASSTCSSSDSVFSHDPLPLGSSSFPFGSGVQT
T1 sequence (P11362 22-822): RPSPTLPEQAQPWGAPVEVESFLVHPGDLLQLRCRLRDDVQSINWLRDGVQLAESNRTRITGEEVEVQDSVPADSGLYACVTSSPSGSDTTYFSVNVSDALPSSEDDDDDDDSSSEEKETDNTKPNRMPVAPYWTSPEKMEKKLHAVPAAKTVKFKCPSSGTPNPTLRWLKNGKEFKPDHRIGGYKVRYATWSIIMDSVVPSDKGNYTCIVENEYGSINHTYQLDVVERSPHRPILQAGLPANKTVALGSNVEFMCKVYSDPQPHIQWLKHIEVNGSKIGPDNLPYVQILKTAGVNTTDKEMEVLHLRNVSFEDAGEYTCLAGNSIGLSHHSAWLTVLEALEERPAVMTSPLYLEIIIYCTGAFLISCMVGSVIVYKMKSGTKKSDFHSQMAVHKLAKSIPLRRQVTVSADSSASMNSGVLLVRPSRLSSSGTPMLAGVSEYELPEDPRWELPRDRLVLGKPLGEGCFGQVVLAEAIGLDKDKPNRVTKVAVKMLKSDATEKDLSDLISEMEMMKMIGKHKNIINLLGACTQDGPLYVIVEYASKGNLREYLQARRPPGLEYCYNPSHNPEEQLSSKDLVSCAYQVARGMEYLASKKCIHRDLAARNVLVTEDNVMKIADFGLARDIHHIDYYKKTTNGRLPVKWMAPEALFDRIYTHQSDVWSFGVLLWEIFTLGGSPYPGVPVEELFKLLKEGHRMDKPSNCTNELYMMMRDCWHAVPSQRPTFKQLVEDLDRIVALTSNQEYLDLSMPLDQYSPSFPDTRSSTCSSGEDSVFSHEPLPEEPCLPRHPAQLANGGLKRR

`COc1cc(OC)c(F)c(Cc2c[nH]c3ncc(-c4cnn(C5CCN(CCO)CC5)c4)cc23)c1F` [Embodiment 16]: the figures for the half-inhibitory concentration (IC50) against human FGFR1, at human FGFR4 and on human c-Met were 0.73 nM, 16.1 nM and 10.5 nM, respectively.
Consider `COc1cc(OC)c(F)c(Cc2c[nH]c3ncc(-c4cnn(CCN(C)C)c4)cc23)c1F` [Hydrochloride of embodiment 28], for which the IC50 against human FGFR1 came to 0.55 nM; at human FGFR4, 20.2 nM; against human c-Met, 25.9 nM.
`COc1cc(OC)c(F)c(Cc2c[nH]c3ncc(-c4c(C)nn(CCO)c4C)cc23)c1F` [Hydrochloride of embodiment 34]: the 50% inhibitory concentration (IC50) was found to be 8.9 nM at human FGFR1, 126 nM on human FGFR4 and 86.7 nM on human c-Met.
The matching figures for `CCN1CCC(n2ncc(-c3cnc4[nH]cc(Cc5c(F)c(OC)cc(OC)c5F)c4c3)c2Cl)CC1` [Hydrochloride of embodiment 40]: 0.4 nM, 21.5 nM and 14.6 nM.
The matching figures for `CCN1CCC(n2cc(-c3cnc4[nH]cc(Cc5c(F)c(OC)cc(OC)c5F)c4c3)c(C#N)n2)CC1` [Hydrochloride of embodiment 42]: 1.4 nM, 10.2 nM and 7.1 nM.
The like results for `COc1cc(OC)c(F)c(Cc2c[nH]c3ncc(-c4cnn(CCO)c4)cc23)c1F` [Hydrochloride of embodiment 46] were, in that order, 0.42 nM, 2.9 nM and 8.9 nM.
Turning to `COc1cc(OC)c(F)c(Cc2c[nH]c3ncc(-c4ccc(C5(C#N)CCNCC5)cc4)cc23)c1F` [Hydrochloride of embodiment 57], the results for the IC50 against human FGFR1, against human FGFR4 and at human c-Met were 1.1 nM, 21.4 nM and 49.4 nM, respectively.
On to `CCN(CC)CCn1cc(-c2cnc3[nH]cc(Cc4c(F)c(OC)cc(OC)c4F)c3c2)cn1` [Hydrochloride of embodiment 69], for which the figures for the IC50 on human FGFR1, against human FGFR4 and at human c-Met were 0.6 nM, 8.4 nM and 35.3 nM, respectively.
For `COCCNCCn1cc(-c2cnc3[nH]cc(Cc4c(F)c(OC)cc(OC)c4F)c3c2)cn1` [Hydrochloride of embodiment 70], the IC50 against human FGFR1 was 0.5 nM; at human FGFR4 it was 5 nM; against human c-Met, 31.4 nM.
Take `COc1cc(OC)c(F)c(Cc2c[nH]c3ncc(-c4cnn(CC(O)CNC(C)C)c4)cc23)c1F` (stereo not drawn) [Hydrochloride of embodiment 71]: the figures for the IC50 on human FGFR1, at human FGFR4 and on human c-Met were 0.4 nM, 4.9 nM and 32.8 nM, respectively.
Consider `COc1cc(OC)c(F)c(Cc2c[nH]c3ncc(-c4cnn(CC(O)CO)c4)cc23)c1F` (stereo not drawn) [Hydrochloride of embodiment 73], for which the half-maximal inhibitory concentration (IC50) came to 0.6 nM against human FGFR1, 2.5 nM on human FGFR4 and 32.4 nM on human c-Met.
As for `CCN1CCC(n2cc(-c3cnc4[nH]cc(Cc5c(F)c(OC)cc(OC)c5F)c4n3)cn2)CC1` [Trifluoroacetate salt of embodiment 6], the IC50 against human FGFR1 came out at 0.04 nM; on human FGFR4, 15.2 nM; against human c-Met, 74.3 nM.
On to `COc1cc(OC)c(F)c(Cc2c[nH]c3ncc(-c4cnn(CCO)c4)nc23)c1F` [Trifluoroacetate salt of embodiment 8], for which the 50% inhibitory concentration (IC50) is 0.43 nM at human FGFR1, 20.7 nM against human FGFR4 and 496 nM against human c-Met.
Take `COc1cc(OC)c(F)c(Cc2c[nH]c3ncc(-c4cnn(C5CCN(C)CC5)c4)cc23)c1F` [Trifluoroacetate salt of embodiment 13]: the IC50 at human FGFR1 is 0.04 nM; on human FGFR4, 9 nM; against human c-Met, 7.62 nM.
For `COc1cc(OC)c(F)c(Cc2c[nH]c3ncc(-c4cnn(C5CCN(C(C)C)CC5)c4)cc23)c1F` [Trifluoroacetate salt of embodiment 14], the IC50 against human FGFR1 came out at 1.34 nM; against human FGFR4, 27.5 nM; on human c-Met, 14 nM.
Take `COc1cc(OC)c(F)c(Cc2c[nH]c3ncc(-c4cnn(C5CCN(C6COC6)CC5)c4)cc23)c1F` [Trifluoroacetate salt of embodiment 15]: the values for the IC50 at human FGFR1, at human FGFR4 and against human c-Met were 1.94 nM, 25.9 nM and 16 nM, respectively.
Regarding `COc1ccc(F)c(Cc2c[nH]c3ncc(-c4cnn(C5CCNCC5)c4)cc23)c1F` [Trifluoroacetate salt of embodiment 19], the values for the IC50 at human FGFR1, at human FGFR4 and on human c-Met were 13.7 nM, 262 nM and 5.7 nM, respectively.
As for `COc1cc(OC)c(F)c(CC2=CN=C3N=CC(c4cnn(CCN5CCOCC5)c4)=CC23)c1F` (stereo not drawn) [Trifluoroacetate salt of embodiment 21], the results for the IC50 against human FGFR1, against human FGFR4 and on human c-Met were 2 nM, 25.2 nM and 55.9 nM, respectively.
In the case of `COc1cc(OC)c(F)c(Cc2c[nH]c3ncc(-c4cnn(C5CN(S(C)(=O)=O)C5)c4)cc23)c1F` [Trifluoroacetate salt of embodiment 23], the half-maximal inhibitory concentration (IC50) turned out to be 4.85 nM at human FGFR1, 43.9 nM at human FGFR4 and 21 nM against human c-Met.
The matching figures for `CCN1CC(n2cc(-c3cnc4[nH]cc(Cc5c(F)c(OC)cc(OC)c5F)c4c3)cn2)C1` [Trifluoroacetate salt of embodiment 25]: 2.1 nM, 31.9 nM and 16.9 nM.
`COc1cc(OC)c(F)c(Cc2c[nH]c3ncc(-c4cnn(CC5CNC5)c4)cc23)c1F` [Trifluoroacetate salt of embodiment 29]: the IC50 came out at 1.9 nM against human FGFR1, 24.6 nM at human FGFR4 and 35.6 nM against human c-Met.
On to `COc1cc(OC)c(F)c(Cc2c[nH]c3ncc(-c4cnn(S(C)(=O)=O)c4)cc23)c1F` [Trifluoroacetate salt of embodiment 30], for which the IC50 stood at 2.1 nM against human FGFR1, 28.2 nM on human FGFR4 and 169 nM at human c-Met.
`COc1cc(OC)c(F)c(Cc2c[nH]c3ncc(-c4cnn(C5CCC(O)CC5)c4)cc23)c1F` (stereo not drawn) [Trifluoroacetate salt of embodiment 31]: the IC50 is 0.9 nM against human FGFR1, 9.9 nM at human FGFR4 and 6.9 nM on human c-Met.
Regarding `CCN1CCC(n2cc(-c3cnc4[nH]cc(Cc5c(F)ccc(OC)c5F)c4c3)c(C)n2)CC1` [Trifluoroacetate salt of embodiment 39], the results for the IC50 at human FGFR1, against human FGFR4 and against human c-Met were 29 nM, 752 nM and 24.5 nM, respectively.
With `COc1cc(OC)c(F)c(Cc2c[nH]c3ncc(-c4cnc5c(c4)CNC5)cc23)c1F` [Trifluoroacetate salt of embodiment 50], the IC50 against human FGFR1 was determined as 0.12 nM; on human FGFR4 it was 4.4 nM; against human c-Met, 136 nM.
With `CCN1Cc2cc(-c3cnc4[nH]cc(Cc5c(F)c(OC)cc(OC)c5F)c4c3)cnc2C1` [Trifluoroacetate salt of embodiment 51], the IC50 at human FGFR1 was found to be 0.27 nM; at human FGFR4, 3 nM; on human c-Met it was 84.1 nM.
Take `COc1cc(OC)c(F)c(Cc2c[nH]c3ncc(-c4cnc5c(c4)CNCC5)cc23)c1F` [Trifluoroacetate salt of embodiment 52]: the IC50 against human FGFR1 was 0.06 nM; against human FGFR4, 13.7 nM; on human c-Met, 137 nM.
Take `CCN1CCc2ncc(-c3cnc4[nH]cc(Cc5c(F)c(OC)cc(OC)c5F)c4c3)cc2C1` [Trifluoroacetate salt of embodiment 53]: the values for the IC50 at human FGFR1, against human FGFR4 and against human c-Met were 0.32 nM, 2.9 nM and 107 nM, respectively.
For `COc1cc(OC)c(F)c(Cc2c[nH]c3ncc(-c4ccc5c(c4)NC(=O)C54CCNCC4)cc23)c1F` [Trifluoroacetate salt of embodiment 54], the values for the IC50 against human FGFR1, at human FGFR4 and against human c-Met were 2.7 nM, 58.5 nM and 16.5 nM, respectively.
The matching figures for `CCN1CCC2(CC1)C(=O)Nc1cc(-c3cnc4[nH]cc(Cc5c(F)c(OC)cc(OC)c5F)c4c3)ccc12` [Trifluoroacetate salt of embodiment 55]: 2.2 nM, 44.9 nM and 22.8 nM.
Consider `COc1cc(OC)c(F)c(Cc2c[nH]c3ncc(-c4ccc5c(c4)NC(=O)C54CCN(C)CC4)cc23)c1F` [Trifluoroacetate salt of embodiment 56], for which the IC50 worked out at 1.9 nM on human FGFR1, 53.2 nM on human FGFR4 and 7.8 nM at human c-Met.
